What all share (format): cell-based
The subject of assay [1] is IPSC-derived cardiomyocyte. Kind of assay: Simultaneous voltage and calcium imaging in IPSC-derived cardiomyocytes. The settings on record: 10-test pulse blue stimulation protocol, 3 wells of each concentration, FIG. 41. An excerpt: A 24 objective plate reader of the invention was used to assay a 96-well plate that contained IPSC-derived cardiomyocyte expressing jRGECO1a calcium sensors, CheRiff actuators, and loaded with BeRST1 fluorescent voltage sensitive dye.
The line labeled “stim” indicates pulses of stimulating light transmitted by the plate reader to multiple wells of the 96-well plate, which caused actuation of CheRiff. This led to resulting changes in voltage and calcium ion concentrations in the cells. The resulting changes in voltage were reported by BeRST1, which was energized by red light transmitted from the plate reader. Calcium ion concentration was reported by jRGECO1, which was energized by yellow light. Thus, the plate reader was able to accurately stimulate an actuator and two reporters in multiple wells of a multi-well plate with three separate wavelengths of light. Moreover, the plate reader was able to simultaneously detect the levels of two separate emission wavelengths of light.
The voltage and calcium fluorescence waveforms in FIG. 40 show the average epoch of the 10-test pulse blue stimulation protocol.
Increasing concentration of Nifedipine altered both the voltage action potential waveform and calcium transients until it was completely extinguished at 0.3 uM.

For assay [2], the target named is T1, Nav1.8 (Homo sapiens, UniProt Q9Y5Y9).
T1 construct: expressed in transfected cells; host or cells: HEK cells co-expressing CheRiff-GFP and Kir2.1, with BeRST dye as the voltage sensor
In words: Nav1.8 spiking HEK assay (optogenetic, 6-test pulse stimulation protocol).

Assay [3] addresses T2, Nav1.7 (Homo sapiens, UniProt Q15858).
T2 construct: expressed in transfected cells; host or cells: HEK cells co-expressing CheRiff, Kir2.1 (lentiviral transduction) and a voltage reporter
Kind of assay: Nav1.7 spiking HEK assay.

Read-outs that look alike come from different tables or passages of the source.

T1 sequence (Q9Y5Y9 whole entry): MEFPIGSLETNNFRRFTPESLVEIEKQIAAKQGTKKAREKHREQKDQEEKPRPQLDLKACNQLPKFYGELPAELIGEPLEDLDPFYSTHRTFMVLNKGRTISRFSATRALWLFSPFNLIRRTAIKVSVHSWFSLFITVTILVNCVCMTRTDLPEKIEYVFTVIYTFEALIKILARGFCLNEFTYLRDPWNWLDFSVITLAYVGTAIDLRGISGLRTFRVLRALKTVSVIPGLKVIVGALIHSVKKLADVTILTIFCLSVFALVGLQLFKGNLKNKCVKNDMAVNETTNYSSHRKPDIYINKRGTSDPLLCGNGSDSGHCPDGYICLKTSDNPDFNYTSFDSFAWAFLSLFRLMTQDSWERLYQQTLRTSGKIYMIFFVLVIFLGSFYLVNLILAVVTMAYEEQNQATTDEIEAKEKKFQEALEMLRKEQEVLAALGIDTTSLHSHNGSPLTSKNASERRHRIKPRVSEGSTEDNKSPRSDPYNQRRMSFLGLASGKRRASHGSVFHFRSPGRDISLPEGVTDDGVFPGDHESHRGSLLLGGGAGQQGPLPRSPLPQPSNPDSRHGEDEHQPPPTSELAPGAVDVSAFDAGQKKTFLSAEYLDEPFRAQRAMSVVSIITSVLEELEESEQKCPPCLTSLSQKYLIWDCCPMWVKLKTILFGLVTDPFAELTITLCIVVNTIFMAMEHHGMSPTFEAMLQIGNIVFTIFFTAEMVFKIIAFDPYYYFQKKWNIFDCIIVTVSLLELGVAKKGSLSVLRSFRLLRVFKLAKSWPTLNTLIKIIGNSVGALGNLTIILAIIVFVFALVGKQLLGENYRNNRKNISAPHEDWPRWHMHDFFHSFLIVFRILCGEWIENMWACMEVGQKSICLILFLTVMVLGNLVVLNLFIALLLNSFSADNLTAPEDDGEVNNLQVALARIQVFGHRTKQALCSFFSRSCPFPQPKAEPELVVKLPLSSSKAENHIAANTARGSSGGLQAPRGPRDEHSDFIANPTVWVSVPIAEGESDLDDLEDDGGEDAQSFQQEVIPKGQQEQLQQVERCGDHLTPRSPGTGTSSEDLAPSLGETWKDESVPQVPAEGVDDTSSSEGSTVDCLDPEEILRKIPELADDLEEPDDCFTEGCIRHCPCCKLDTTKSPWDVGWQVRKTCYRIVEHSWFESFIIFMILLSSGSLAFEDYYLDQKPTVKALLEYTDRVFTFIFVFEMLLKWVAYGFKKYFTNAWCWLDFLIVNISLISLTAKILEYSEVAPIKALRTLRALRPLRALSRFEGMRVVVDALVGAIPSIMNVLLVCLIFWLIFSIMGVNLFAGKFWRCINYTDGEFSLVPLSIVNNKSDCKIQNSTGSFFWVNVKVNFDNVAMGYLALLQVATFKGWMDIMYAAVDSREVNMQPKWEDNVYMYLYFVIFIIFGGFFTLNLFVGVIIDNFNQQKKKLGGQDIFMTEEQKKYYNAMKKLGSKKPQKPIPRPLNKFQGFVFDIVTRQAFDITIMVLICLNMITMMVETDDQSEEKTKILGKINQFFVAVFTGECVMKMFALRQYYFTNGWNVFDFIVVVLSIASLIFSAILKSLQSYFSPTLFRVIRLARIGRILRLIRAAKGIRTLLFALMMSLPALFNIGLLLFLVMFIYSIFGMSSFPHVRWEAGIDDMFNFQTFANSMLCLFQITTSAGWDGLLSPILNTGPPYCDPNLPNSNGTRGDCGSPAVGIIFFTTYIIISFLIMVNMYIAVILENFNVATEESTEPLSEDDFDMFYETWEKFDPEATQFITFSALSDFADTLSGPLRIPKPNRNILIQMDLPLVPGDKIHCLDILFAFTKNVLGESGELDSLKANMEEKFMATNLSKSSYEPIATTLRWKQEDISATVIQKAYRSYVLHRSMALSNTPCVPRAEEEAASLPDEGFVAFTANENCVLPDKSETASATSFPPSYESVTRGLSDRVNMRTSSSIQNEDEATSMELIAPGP
T2 sequence (Q15858 whole entry): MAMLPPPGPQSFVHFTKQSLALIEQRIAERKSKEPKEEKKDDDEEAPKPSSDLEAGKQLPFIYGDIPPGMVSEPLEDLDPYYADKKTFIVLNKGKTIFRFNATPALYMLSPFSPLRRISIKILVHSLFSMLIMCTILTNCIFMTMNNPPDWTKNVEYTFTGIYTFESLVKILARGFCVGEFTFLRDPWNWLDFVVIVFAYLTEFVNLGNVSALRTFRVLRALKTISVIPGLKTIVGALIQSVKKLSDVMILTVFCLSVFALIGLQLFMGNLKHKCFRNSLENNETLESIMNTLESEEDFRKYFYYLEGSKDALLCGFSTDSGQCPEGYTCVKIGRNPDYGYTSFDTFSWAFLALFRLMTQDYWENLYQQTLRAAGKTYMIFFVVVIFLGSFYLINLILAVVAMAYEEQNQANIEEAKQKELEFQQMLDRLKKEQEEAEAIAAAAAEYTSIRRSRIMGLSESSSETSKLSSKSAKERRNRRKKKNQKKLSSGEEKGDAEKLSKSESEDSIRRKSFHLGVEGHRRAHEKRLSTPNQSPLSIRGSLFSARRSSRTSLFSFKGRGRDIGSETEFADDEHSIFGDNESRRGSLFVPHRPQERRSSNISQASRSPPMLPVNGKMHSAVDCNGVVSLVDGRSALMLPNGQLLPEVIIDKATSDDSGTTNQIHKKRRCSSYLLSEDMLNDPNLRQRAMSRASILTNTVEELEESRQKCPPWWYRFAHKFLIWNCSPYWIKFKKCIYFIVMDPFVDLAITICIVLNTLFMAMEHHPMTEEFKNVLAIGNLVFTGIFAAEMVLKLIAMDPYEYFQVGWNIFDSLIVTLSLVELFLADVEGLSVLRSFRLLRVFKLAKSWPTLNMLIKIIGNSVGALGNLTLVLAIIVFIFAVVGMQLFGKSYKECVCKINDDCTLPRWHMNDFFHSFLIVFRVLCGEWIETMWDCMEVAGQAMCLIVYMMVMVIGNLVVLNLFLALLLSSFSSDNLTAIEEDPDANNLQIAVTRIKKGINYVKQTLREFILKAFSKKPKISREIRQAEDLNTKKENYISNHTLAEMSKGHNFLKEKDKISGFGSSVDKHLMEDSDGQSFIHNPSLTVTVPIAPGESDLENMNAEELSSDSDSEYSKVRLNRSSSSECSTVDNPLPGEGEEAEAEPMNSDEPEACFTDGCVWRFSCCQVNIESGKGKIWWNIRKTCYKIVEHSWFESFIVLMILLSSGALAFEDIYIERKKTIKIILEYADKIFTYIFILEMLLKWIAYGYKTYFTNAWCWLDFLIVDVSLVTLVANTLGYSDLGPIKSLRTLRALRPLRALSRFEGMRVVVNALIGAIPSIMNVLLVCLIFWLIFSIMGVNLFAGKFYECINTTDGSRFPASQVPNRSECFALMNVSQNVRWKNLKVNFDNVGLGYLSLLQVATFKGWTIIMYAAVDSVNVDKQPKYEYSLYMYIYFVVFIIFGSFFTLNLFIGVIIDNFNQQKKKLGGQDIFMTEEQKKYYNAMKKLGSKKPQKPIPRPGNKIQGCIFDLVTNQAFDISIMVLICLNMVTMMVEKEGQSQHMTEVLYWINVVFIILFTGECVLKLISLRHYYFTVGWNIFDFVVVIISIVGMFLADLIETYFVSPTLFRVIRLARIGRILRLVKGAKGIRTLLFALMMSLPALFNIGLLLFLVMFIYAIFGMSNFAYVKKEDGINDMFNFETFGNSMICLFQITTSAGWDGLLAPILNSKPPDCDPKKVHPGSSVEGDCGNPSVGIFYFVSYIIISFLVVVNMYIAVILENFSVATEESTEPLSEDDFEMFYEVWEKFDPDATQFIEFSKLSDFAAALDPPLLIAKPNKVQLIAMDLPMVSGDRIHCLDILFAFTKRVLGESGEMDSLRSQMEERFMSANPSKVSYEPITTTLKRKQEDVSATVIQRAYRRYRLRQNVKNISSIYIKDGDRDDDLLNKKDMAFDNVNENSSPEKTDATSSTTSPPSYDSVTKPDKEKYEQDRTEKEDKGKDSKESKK

With `COC(=O)C1=C(C)NC(C)=C(C(=O)OC)C1c1ccccc1[N+](=O)[O-]` [Nifedipine], in assay [1], the “concentration at which voltage action potential waveform and calcium transients were completely extinguished” value worked out at 0.3 µM.
For the molecule `CNC(=O)c1ccc(-c2cc(Cl)cc(Cl)c2Cl)c(N)n1` [PF-01247324], the IC50 in assay [2] (Nav1.8 spiking HEK assay, dose response curves, FIG. 43D, read-out: IC50, block of Nav1.8) amounted to 130 nM. The “selectivity against Nav1.7” value in assay [2] (Nav1.8 versus Nav1.7 spiking HEK assays, FIG. 43D) is on record as 40 fold. Besides, the “test pulse preference of block (TP1 versus TP5)” value in assay [2] (dose response curves at TP5 and TP1, FIG. 43C) was “preferentially blocks TP5”. The “test pulse at which blocker is more effective (slope of repolarization)” value in assay [2] (representative traces, 6-test pulse protocol, FIG. 43B) is listed as “more effective after the long pulse (TP5)”.
Consider `NC1=N[C@H](O)[C@H]2[C@H]3O[C@]4(O)O[C@@H]([C@@H](O)[C@@]2(N1)[C@@H]4O)[C@]3(O)CO` [TTX, Tetrodotoxin], for which, in assay [2], the “test pulse preference of block (TP1 versus TP5)” value was “equivalently blocks TP1 and TP5”. Also, the “selectivity for Nav1.7” value in assay [3] is recorded as “more than 1,000 fold”.

One may read the IC50 as the concentration at which inhibition is half-maximal.

The record behind these values is patent publication US12105023B2, “Multi-well plate readers and methods of their use” (QUELLTX, INC., priority 2021, dated 2024).
